Data as given in ChEMBL document CHEMBL1201862, “PubChem BioAssay data set” (2004).
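How tested: cells in 96-well plates exposed to compound for 48 hours at five concentrations. GI50 = concentration required for 50% inhibition of growth.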 Active and inactive are the calls of the source. No stated cut-off is given here; in the data, active = GI50 up to about 1.1 µM and inactive = higher.

Key:
Test in all cases: NCI tumour cell line growth inhibition, 48 h
DMS-114 = test system: DMS-114
HCT-116 = test system: HCT-116
M19-MEL = test system: M19-MEL
A549 = test system: A549
DLD-1 = test system: DLD-1
SK-MEL-28 = test system: SK-MEL-28
COLO 205 = test system: COLO 205
UACC-257 = test system: UACC-257
OVCAR-8 = test system: OVCAR-8
HL-60 = test system: HL-60
SW-620 = test system: SW-620
SK-MEL-5 = test system: SK-MEL-5
NCI-H522 = test system: NCI-H522
HOP-18 = test system: HOP-18
UO-31 = test system: UO-31
UACC-62 = test system: UACC-62
SNB-75 = test system: SNB-75
786-0 = test system: 786-0
DMS-273 = test system: DMS-273
A498 = test system: A498
HOP-62 = test system: HOP-62
RXF 631 = test system: RXF 631
NCI-H226 = test system: NCI-H226
KM-20L2 = test system: KM-20L2
SF-268 = test system: SF-268
SK-MEL-2 = test system: SK-MEL-2
LXFL 529 = test system: LXFL 529
OVCAR-4 = test system: OVCAR-4
KM12 = test system: KM12
OVCAR-3 = test system: OVCAR-3
Malme-3M = test system: Malme-3M
M14 = test system: M14
HCC 2998 = test system: HCC 2998
CCRF-CEM = test system: CCRF-CEM
NCI-H460 = test system: NCI-H460
RXF 393 = test system: RXF 393
CAKI-1 = test system: CAKI-1
SNB-19 = test system: SNB-19
HCT-15 = test system: HCT-15
ACHN = test system: ACHN
IGROV-1 = test system: IGROV-1
RPMI-8226 = test system: RPMI-8226
K562 = test system: K562
SN12C = test system: SN12C
SK-OV-3 = test system: SK-OV-3
U-251 = test system: U-251
TK-10 = test system: TK-10
SNB-78 = test system: SNB-78
SR = test system: SR
MOLT-4 = test system: MOLT-4
SF-539 = test system: SF-539

Measured: GI50

N#C[C@]12CC3(CC[C@H]1CC1(C2)OCCO1)OCCO3
inactive: DMS-114 > 100 µM | HCT-116 > 100 µM | M19-MEL > 100 µM | A549 > 100 µM | DLD-1 > 100 µM | SK-MEL-28 > 100 µM | COLO 205 > 100 µM | UACC-257 > 100 µM | OVCAR-8 > 100 µM | HL-60 > 100 µM | SW-620 > 100 µM | SK-MEL-5 > 100 µM | NCI-H522 > 100 µM | HOP-18 > 100 µM | UO-31 > 100 µM | UACC-62 > 100 µM | SNB-75 > 100 µM | 786-0 > 100 µM | DMS-273 > 100 µM | A498 > 100 µM | HOP-62 > 100 µM | RXF 631 > 100 µM | NCI-H226 > 100 µM | KM-20L2 > 100 µM | SF-268 > 100 µM | SK-MEL-2 > 100 µM | LXFL 529 > 100 µM | OVCAR-4 > 100 µM | KM12 > 100 µM | OVCAR-3 > 100 µM | Malme-3M > 100 µM | M14 > 100 µM | HCC 2998 > 100 µM | CCRF-CEM > 100 µM | NCI-H460 > 100 µM | RXF 393 > 100 µM | CAKI-1 > 100 µM | SNB-19 > 100 µM | ACHN > 100 µM | IGROV-1 > 100 µM | RPMI-8226 > 100 µM | K562 > 100 µM | SN12C > 100 µM | SK-OV-3 > 100 µM | U-251 > 100 µM | TK-10 > 100 µM | SNB-78 > 100 µM | SR > 100 µM | MOLT-4 > 100 µM | SF-539 > 100 µM
> 100 µM: HCT-15
